Reference: patent publication US20230357139A1, “SMALL MOLECULE INHIBITORS OF BACTERIAL TOXINS” (Artizan Biosciences, Inc., priority 2020, published 2023)

Each compound was assayed on recombinant BFT (rBFT) (assay: NFF-3 cleavage assay). Settings: rBFT pre-incubated with compound 30 minutes at 37° C., then NFF-3 for 24 hours; read-out: NFF3 IC50.
Type: biochemical, B. fragilis
Procedure: A NFF-3 cleavage assay was used to test activity of recombinant BFT, before or after addition of various inhibitors. The NFF-3 cleavage assay was previously described by Goulas et al., PNAS, 2011, 108(5) 1856-1861, which is incorporated by reference herein in its entirety.
Initially, recombinant BFT (rBFT) (0.25, 0.5, 1, 2, 4, 8, or 16 μg/mL) was incubated at 37° C. with the fluorogenic substrate NFF-3 (Cayman Chemical) at a concentration of 2.5 μM, 5 μM, or 10 μM. After 18 hours, fluorescence was measured in a microplate fluorimeter.
Next, rBFT was pre-incubated with one or more test compounds at different concentrations for 30 minutes at 37° C. The rBFT-compound mixture was then added to NFF-3 and incubated for 24 hours at 37° C. Fluorescence was then measured in a microplate fluorimeter.

Point of comparison: `CC(C)C[C@H](C(=O)NO)N(Cc1cccnc1)S(=O)(=O)c1ccc(C(=N)N)cc1` [Example 52], IC50 27900 nM. Against it:
- CC(C)C[C@H](C(=O)NO)N(Cc1cccnc1)S(=O)(=O)c1ccc(C(C)O)cc1 (some centres unmarked) [Example 37] — 1.8-fold higher, 49700 nM
- CC(=O)c1ccc(S(=O)(=O)N(Cc2cccnc2)[C@H](CC(C)C)C(=O)NO)cc1 [Example 38] — 4.6-fold lower, 6130 nM
- O=C(NO)[C@@H](CC(F)F)N(Cc1cccnc1)S(=O)(=O)c1ccc(O)cc1 [Example 48] — 1.9-fold lower, 14600 nM
- CC(C)C[C@H](C(=O)NO)N(Cc1cccnc1)S(=O)(=O)c1cccc(C(N)=O)c1 [Example 39] — 2.8-fold higher, 79300 nM
- CCC(C)[C@H](C(=O)NO)N(Cc1cccnc1)S(=O)(=O)c1ccc(O)cc1 (some centres unmarked) [Example 36] — 120-fold lower, 240 nM
- O=C(NO)[C@@H](Cc1cccs1)N(Cc1ccc(OCCF)cc1)S(=O)(=O)c1ccc(O)cc1 [Example 100] — 190-fold lower, 150 nM
- CC(C)[C@@H](C(=O)NO)N(Cc1ccccc1)S(=O)(=O)c1ccc(O)c(F)c1 [Example 68] — 1.8-fold higher, 50100 nM
- COCC[C@H](C(=O)NO)N(Cc1cccnc1)S(=O)(=O)c1ccc(O)cc1 [Example 54] — 70-fold lower, 400 nM
- CCC[C@H](C(=O)NO)N(CCc1ccc2[nH]ccc2c1)S(=O)(=O)c1ccc(O)cc1 [Example 112] — not separable, > 10000 nM
- CC(C)[C@H](C(=O)NO)N(Cc1cccnc1)S(=O)(=O)c1ccsc1 [Example 76] — 2.8-fold lower, 9930 nM
- Cc1ccc(CN([C@H](Cc2cccs2)C(=O)NO)S(=O)(=O)c2ccc(O)cc2)cc1 [Example 90] — 120-fold lower, 236 nM
- COc1cccc(CN([C@H](Cc2cccs2)C(=O)NO)S(=O)(=O)c2ccc(O)cc2)c1 [Example 89] — 150-fold lower, 185 nM
- CC(C)C[C@H](C(=O)NO)N(Cc1cccnc1)S(=O)(=O)c1ccc(NC=O)cc1 [Example 49, (R)-2-((4-formamido-N-(pyridin-3-ylmethyl)phenyl)-sulfonamido)-N-hydroxy-4-methyl pentanamide] — 3.4-fold lower, 8200 nM
- CC(C)[C@@H](C(=O)NO)N(Cc1ccccc1)S(=O)(=O)c1cccc(C(F)(F)F)c1 [Example 69] — 25-fold higher, 691000 nM
- CCC[C@@H](C(=O)NO)N(CCc1ccccn1)S(=O)(=O)c1ccc(O)cc1 [Example 78] — 130-fold lower, 216 nM
- Cc1cccc(CN([C@H](Cc2cccs2)C(=O)NO)S(=O)(=O)c2ccc(O)cc2)c1 [Example 84] — 57-fold lower, 491 nM
- COc1ccc(C(C(=O)NO)N(Cc2ccc3[nH]ccc3c2)S(=O)(=O)c2ccc(O)cc2)cc1 (centres unmarked) [Example 93] — 240-fold lower, 117 nM
- CC[C@H](C(=O)NO)N(Cc1cccnc1)S(=O)(=O)CCNC(=O)CSC [Example 70] — 5.9-fold higher, 164000 nM
- CC(C)C[C@H](C(=O)NO)N(Cc1cccnc1)S(=O)(=O)c1ccc(C#N)cc1 [Example 47] — 4.6-fold lower, 6090 nM
- CC[C@H](C(=O)NO)N(Cc1cccnc1)S(=O)(=O)c1ccc(O)cc1F [Example 57] — 140-fold lower, 196 nM
- CC(C)CN(CC(=O)NO)S(=O)(=O)c1ccc(O)cc1 [Example 56] — 6-fold lower, 4620 nM
- COC[C@H](C(=O)NO)N(Cc1cccnc1)S(=O)(=O)c1ccc(O)cc1 [Example 53] — 49-fold lower, 570 nM
- O=C(NO)[C@@H](CO)N(Cc1cccnc1)S(=O)(=O)c1ccc(O)cc1 [Example 50] — 55-fold lower, 510 nM
- O=C(NO)[C@@H](Cc1cccs1)N(Cc1cccc(Cl)c1)S(=O)(=O)c1ccc(O)cc1 [Example 83] — 53-fold lower, 530 nM
- C[C@H](C(=O)NO)N(CCc1ccccc1)S(=O)(=O)c1ccc(O)cc1 [Example 105] — 310-fold lower, 90 nM
- COc1ccc(S(=O)(=O)N(Cc2cccnc2)[C@H](C(=O)NO)C(C)C)cc1 [Example 64] — 3.4-fold lower, 8280 nM
- O=C(NO)[C@@H](Cc1cccs1)N(Cc1ccc(Cl)cc1)S(=O)(=O)c1ccc(O)cc1 [Example 80] — 96-fold lower, 290 nM
- CC(C)C[C@H](C(=O)NO)N(Cc1cccnc1)S(=O)(=O)c1ccc(-c2nnn[nH]2)cc1 [Example 51] — higher, > 200000 nM
- CC(C)C[C@H](C(=O)NN)N(Cc1cccnc1)S(=O)(=O)c1ccc(O)cc1 [Example 34] — within 1.5-fold, 28000 nM
- CSCC[C@H](C(=O)NO)N(CCc1ccccc1)S(=O)(=O)c1ccc(O)cc1 [Example 92] — 280-fold lower, 99 nM
- CC(C)C[C@H](C(=O)NO)N(Cc1cccnc1)S(=O)(=O)c1ccc(NS(C)(=O)=O)cc1 [Example 41, (R)—N-hydroxy-4-methyl-2-((4-(methylsulfonamido)-N-(pyridin-3-ylmethyl)phenyl)sulfonamido) pentanamide] — within 1.5-fold, 24100 nM
- O=C(NO)[C@@H](Cc1cccs1)N(Cc1ccc(OC(F)F)cc1)S(=O)(=O)c1ccc(O)cc1 [Example 98] — 20-fold lower, 1400 nM
- COc1ccc(S(=O)(=O)N(Cc2ccccc2)[C@H](C(=O)NO)C(C)C)cc1F [Example 65] — within 1.5-fold, 28500 nM
- O=C(NO)[C@@H](Cc1cccs1)N(Cc1ccc(OC(F)(F)F)cc1)S(=O)(=O)c1ccc(O)cc1 [Example 77] — 190-fold lower, 150 nM
- CC[C@H](C(=O)NO)N(Cc1cccnc1)S(=O)(=O)c1ccc(O)c(F)c1 [Example 58] — 55-fold lower, 510 nM
- CCCC[C@H](C(=O)NO)N(Cc1cccnc1)S(=O)(=O)c1ccc(O)cc1 [Example 44] — 210-fold lower, 130 nM
- CC(C)C[C@H](C(=O)NO)N(Cc1cccnc1)S(=O)(=O)c1ccc(N)cc1 [Example 43] — 9.3-fold lower, 2990 nM
- O=C(NO)[C@@H](Cc1cocn1)N(Cc1cccnc1)S(=O)(=O)c1ccc(O)cc1 [Example 67] — 6.6-fold lower, 4250 nM
- CC[C@H](C(=O)NO)N(Cc1cccnc1)S(=O)(=O)c1ccc(O)c(Cl)c1 [Example 59] — 6.6-fold lower, 4220 nM
- CCOc1ccc(CN([C@H](Cc2cccs2)C(=O)NO)S(=O)(=O)c2ccc(O)cc2)cc1 [Example 81] — 50-fold lower, 556 nM
- CC(C)C[C@H](C(=O)NO)N(Cc1cccnc1)S(=O)(=O)c1ccc(C(N)=O)cc1 [Example 46] — 4.6-fold lower, 6100 nM
- COc1ccc(S(=O)(=O)N(Cc2cccnc2)CC(O)CSC(C)=O)cc1 (centres unmarked) [Example 75] — higher, > 100000 nM
- CC(C)[C@@H](C(=O)NO)N(Cc1ccccc1)S(=O)(=O)c1c(F)c(F)c(F)c(F)c1F [Example 72] — 23-fold higher, 637000 nM

Each compound was assayed against Gelatinase E (GelE) (Enterococcus faecalis (strain ATCC 700802 / V583), UniProt Q833V7) (assay: Gelatinase E activity assay (FRET peptide substrate)). Settings: Table 11.
Type: biochemical
Procedure: Gelatinase E (Gel E) was purified from bacterial culture supernatant from E. faecalis. E. faecalis was cultured aerobically in Todd Hewitt Broth overnight at 37° C. Nucleic acid was precipitated with 0.9% protamine solution, followed by protein precipitation with ammonium sulfate. Resuspended protein pellet was further subjected to purification using FPLC (phenyl Sepharose column). Fractions with gelatinase activity as determined by casein agar assay were pooled and further concentrated.
Different concentrations of test compound were incubated with purified GelE and FRET-based peptide substrate (390 MMP FRET Substrate 1; Anaspec AS-27077) in assay buffer at room temperature for 30 minutes. The fluorescence signal was determined by a plate reader.

Chain of Gelatinase E (GelE) (Q833V7 193-510 limits assumed): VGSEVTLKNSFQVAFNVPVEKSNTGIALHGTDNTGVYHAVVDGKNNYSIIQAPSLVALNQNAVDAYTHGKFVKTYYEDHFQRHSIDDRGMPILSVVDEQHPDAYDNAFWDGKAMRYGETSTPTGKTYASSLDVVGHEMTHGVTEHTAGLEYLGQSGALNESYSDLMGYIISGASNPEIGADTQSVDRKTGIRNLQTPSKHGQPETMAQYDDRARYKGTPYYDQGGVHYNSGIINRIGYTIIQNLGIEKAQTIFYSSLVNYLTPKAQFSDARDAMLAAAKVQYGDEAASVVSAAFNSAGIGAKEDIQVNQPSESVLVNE

Point of comparison: `CC(C)CN(CC(=O)NO)S(=O)(=O)c1ccc(OCCCF)cc1` [AB], IC50 2400 nM. Against it:
- CC(C)CN(CC(=O)NO)S(=O)(=O)c1ccc(OCC(=O)NCc2ccc(Cl)cc2)cc1 [AI] — 15-fold lower, 164 nM
- CC(C)CN(CC(=O)NO)S(=O)(=O)c1ccc(OCC(=O)NCc2ccccn2)cc1 [AP] — 14-fold lower, 177 nM
- CC(C)CN(CC(=O)NO)S(=O)(=O)c1ccc(OCC(=O)NC(C)c2ccccc2)cc1 (centres unmarked) [AR] — 10-fold lower, 237 nM
- COc1ccc(S(=O)(=O)N(CC(=O)NO)Cc2ccccc2)cc1 [S] — 12-fold lower, 204 nM
- CC(C)CN(CC(=O)NO)S(=O)(=O)c1ccc(OCC(F)F)cc1 [X] — 13-fold lower, 180 nM
- CC(C)CN(CC(=O)NO)S(=O)(=O)c1ccc(OCCF)cc1 [Z] — 9.8-fold lower, 246 nM
- CC(C)CN(CC(=O)NO)S(=O)(=O)c1ccc(OCC(=O)NCc2cccc(F)c2)cc1 [AN] — 15-fold lower, 158 nM
- CC(C)CN(CC(=O)NO)S(=O)(=O)c1ccc(OCC(=O)NCc2ccsc2)cc1 [AC] — 17-fold lower, 139 nM
- CC(C)CN(CC(=O)NO)S(=O)(=O)c1ccc(OCC(=O)NCc2cccc(Cl)c2)cc1 [AG, N-(3-chlorobenzyl)-2-(4-(N-(2-(hydroxyamino)-2-oxoethyl)-N-isobutylsulfamoyl)phenoxy)acetamide] — 23-fold lower, 103 nM
- COc1ccc(-n2ccc(CCC(=O)NO)n2)cc1 [V] — 5.3-fold higher, 12700 nM
- C=CCOc1ccc(S(=O)(=O)N(CC(=O)NO)CC(C)C)cc1 [R] — within 1.5-fold, 2420 nM
- COc1ccc(CNC(=O)COc2ccc(S(=O)(=O)N(CC(=O)NO)CC(C)C)cc2)cc1 [AE] — 15-fold lower, 156 nM
- CC(C)CN(CC(=O)NO)S(=O)(=O)c1ccc(OCC(=O)NCc2ccc(F)cc2)cc1 [AJ] — 7.7-fold lower, 313 nM
- COCCN(CC(=O)NO)S(=O)(=O)c1ccc(OC)cc1 [Y] — 2.8-fold higher, 6760 nM
- Cc1cccc(CNC(=O)COc2ccc(S(=O)(=O)N(CC(=O)NO)CC(C)C)cc2)c1 [AK] — higher, > 10000 nM
- CC(C)CN(CC(=O)NO)S(=O)(=O)c1ccc(Oc2ccccc2)cc1 [AA] — within 1.5-fold, 1690 nM
- CC(C)CN(CC(=O)NO)S(=O)(=O)c1ccc(OCC(=O)NCc2cc(F)cc(F)c2)cc1 [AO] — higher, > 10000 nM
- CSc1cccc(CNC(=O)COc2ccc(S(=O)(=O)N(CC(=O)NO)CC(C)C)cc2)c1 [AQ] — 20-fold lower, 119 nM
- CC(C)CN(CC(=O)NO)S(=O)(=O)c1ccc(OCC(=O)NCc2ccccc2)cc1 [B] — 18-fold lower, 130 nM
- Cc1ccc(CNC(=O)COc2ccc(S(=O)(=O)N(CC(=O)NO)CC(C)C)cc2)cc1 [AD] — 15-fold lower, 155 nM
- CC(C)CN(CC(=O)NO)S(=O)(=O)c1ccc(OCC(=O)NCc2cccc(C(F)(F)F)c2)cc1 [AF] — 21-fold lower, 113 nM
- CC(C)CN(CC(=O)NO)S(=O)(=O)c1ccc(OCC(=O)NCc2ccc(C(F)(F)F)cc2)cc1 [AH] — 10-fold lower, 238 nM
- Cc1ccccc1CNC(=O)COc1ccc(S(=O)(=O)N(CC(=O)NO)CC(C)C)cc1 [AL] — 11-fold lower, 218 nM
